Measured values as given in ChEMBL document CHEMBL2034889, “The design and synthesis of novel, potent and orally bioavailable N-aryl piperazine-1-carboxamide CCR2 antagonists with very high hERG selectivity” (Bioorg Med Chem Lett, 2012).
≈ marks a conversion by molar mass, not a printed value. One block for each molecule: values may come before it. Calls of active or inactive are those of the source. The calls are words filed in the database; no cut-off is given here.

What was measured:
[1] = target: T1, C-C chemokine receptor type 2 (Homo sapiens, UniProt P41597); assay: Displacement of 125I-MCP1 from human CCR2 receptor expressed in human THP-1 cell membrane by SPA assay; assay type: cell membranes
[2] = target: T1, C-C chemokine receptor type 2; assay: Antagonist activity at human CCR2 receptor expressed in human THP-1 cells assessed as inhibition of MCP1-induced Ca2+ flux by FLIPR analysis; assay type: functional, cell-based
[3] = target: T2, Voltage-gated inwardly rectifying potassium channel KCNH2 (Homo sapiens, UniProt Q12809)
[4] = Intrinsic clearance in rat hepatocytes assessed per 10^6 cells; assay type: ADME, cell-based, Hepatocyte; settings: read-out: CLH
[5] = Intrinsic clearance in dog hepatocytes assessed per 10^6 cells; assay type: ADME, cell-based, Canis lupus familiaris, Hepatocyte; settings: read-out: CLH
[6] = Intrinsic clearance in human hepatocytes assessed per 10^6 cells; assay type: ADME, cell-based, Hepatocyte; settings: read-out: CLH
[7] = Clearance in rat at 4 umol/kg, iv; assay type: ADME, organism-based; settings: in vivo
[8] = Clearance in dog at 4 umol/kg, iv; assay type: ADME, organism-based, Canis lupus familiaris; settings: in vivo
[9] = Volume of distribution at steady state in rat at 4 umol/kg, iv; assay type: ADME, organism-based; settings: in vivo, read-out: Vdss
[10] = Volume of distribution at steady state in dog at 4 umol/kg, iv; assay type: ADME, organism-based, Canis lupus familiaris; settings: in vivo, read-out: Vdss
[11] = Half life in rat at 4 umol/kg, iv; assay type: ADME, organism-based; settings: in vivo
[12] = Half life in dog at 4 umol/kg, iv; assay type: ADME, organism-based, Canis lupus familiaris; settings: in vivo
[13] = Oral bioavailability in rat at 11 umol/kg; assay type: ADME, organism-based; settings: in vivo
[14] = Oral bioavailability in dog at 4 umol/kg; assay type: ADME, organism-based, Canis lupus familiaris; settings: in vivo
[15] = Lipophilicity, log D of the compound at pH 7.4; assay type: physicochemical; settings: buffer
[16] = Lipophilicity, log P of the compound at pH 7.4; assay type: physicochemical; settings: buffer
[17] = Dissociation constant, pKa of the compound; assay type: physicochemical
[18] = Aqueous solubility of the compound; assay type: physicochemical; settings: buffer
[19] = target: T2, Voltage-gated inwardly rectifying potassium channel KCNH2; assay: Inhibition of human ERG by electrophysiology assay
[20] = target: T1, C-C chemokine receptor type 2; assay: Antagonist activity at human CCR2 in human peripheral whole blood assessed as inhibition of MCP1-induced L-selectin shedding; assay type: functional, tissue-based; settings: read-out: pA2 (converted)
[21] = target: C-C chemokine receptor type 2 (Mus musculus, UniProt P51683); assay: Antagonist activity at mouse CCR2 receptor expressed in human THP-1 cells assessed as inhibition of MCP1-induced Ca2+ flux by FLIPR analysis; assay type: functional, cell-based
[22] = target: T3, C-C chemokine receptor type 2 (Rattus norvegicus, UniProt O55193); assay: Antagonist activity at rat CCR2 receptor expressed in human THP-1 cells assessed as inhibition of MCP1-induced Ca2+ flux by FLIPR analysis; assay type: functional, cell-based
T3 sequence (O55193 whole entry): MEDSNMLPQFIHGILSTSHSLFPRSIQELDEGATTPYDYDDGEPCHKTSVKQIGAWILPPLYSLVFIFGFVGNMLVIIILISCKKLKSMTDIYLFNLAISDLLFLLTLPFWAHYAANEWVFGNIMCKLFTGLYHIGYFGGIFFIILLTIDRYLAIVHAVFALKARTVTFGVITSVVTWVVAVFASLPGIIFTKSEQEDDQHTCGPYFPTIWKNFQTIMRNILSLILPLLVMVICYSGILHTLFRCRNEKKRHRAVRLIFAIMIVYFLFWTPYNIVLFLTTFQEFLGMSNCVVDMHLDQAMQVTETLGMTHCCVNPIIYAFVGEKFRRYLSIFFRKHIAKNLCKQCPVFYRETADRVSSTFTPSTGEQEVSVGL

[23] = Antagonist activity at dog CCR2 receptor expressed in human THP-1 cells assessed as inhibition of MCP1-induced Ca2+ flux by FLIPR analysis; assay type: functional, cell-based
[24] = target: T4, C-C chemokine receptor type 1 (Homo sapiens) (UniProt P32246); assay: Inhibition of human CCR1 by FLIPR analysis
T4 sequence (whole entry): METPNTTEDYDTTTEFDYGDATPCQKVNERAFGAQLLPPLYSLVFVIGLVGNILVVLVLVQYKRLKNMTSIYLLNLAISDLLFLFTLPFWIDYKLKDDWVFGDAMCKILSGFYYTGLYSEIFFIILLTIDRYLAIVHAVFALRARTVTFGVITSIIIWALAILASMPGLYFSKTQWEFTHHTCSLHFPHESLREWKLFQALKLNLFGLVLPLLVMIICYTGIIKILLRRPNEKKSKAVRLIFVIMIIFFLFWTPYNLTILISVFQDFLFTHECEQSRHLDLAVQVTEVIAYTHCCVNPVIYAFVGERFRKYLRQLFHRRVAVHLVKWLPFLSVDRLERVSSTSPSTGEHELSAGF

[25] = target: C-C chemokine receptor type 8 (Homo sapiens) (UniProt P51685); assay: Inhibition of human CCR8 by FLIPR analysis
[26] = target: C-X-C chemokine receptor type 4 (Homo sapiens) (UniProt P61073); assay: Inhibition of human CXCR4 by FLIPR analysis
[27] = target: T5, C-X-C chemokine receptor type 5 (Homo sapiens) (UniProt P32302); assay: Inhibition of human CXCR5 by FLIPR analysis
T5 sequence (whole entry): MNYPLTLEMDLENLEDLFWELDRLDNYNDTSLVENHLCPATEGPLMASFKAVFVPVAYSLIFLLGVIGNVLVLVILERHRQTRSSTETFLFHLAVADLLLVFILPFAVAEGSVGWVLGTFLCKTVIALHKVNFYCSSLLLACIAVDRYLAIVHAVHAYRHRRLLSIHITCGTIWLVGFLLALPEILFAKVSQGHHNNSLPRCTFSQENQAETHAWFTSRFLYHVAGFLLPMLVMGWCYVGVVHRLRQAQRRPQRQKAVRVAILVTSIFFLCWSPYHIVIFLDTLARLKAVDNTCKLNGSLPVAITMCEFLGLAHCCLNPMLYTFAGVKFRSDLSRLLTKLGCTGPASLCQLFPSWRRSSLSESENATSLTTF

[28] = target: C-C chemokine receptor type 5 (Homo sapiens, UniProt P51681); assay: Inhibition of human CCR5 by FLIPR analysis
[29] = Aqueous solubility at pH 7. 4; assay type: physicochemical; settings: buffer
[30] = Fraction unbound in rat plasma; assay type: ADME, cell-free
[31] = Fraction unbound in human plasma; assay type: ADME, cell-free
[32] = Intrinsic clearance in human microsomes assessed per mg of protein; assay type: ADME, Microsome
[33] = Clearance in iv dosed rat; assay type: ADME, organism-based; settings: in vivo
[34] = Half life in rat; assay type: ADME, organism-based; settings: in vivo
[35] = Volume of distribution in rat; assay type: ADME, organism-based; settings: in vivo
[36] = Oral bioavailability in rat; assay type: ADME, organism-based; settings: in vivo
[37] = target: Cytochrome P450 3A4 (Homo sapiens, UniProt P08684); assay: Inhibition of CYP3A4; assay type: ADME
[38] = target: Cytochrome P450 2D6 (Homo sapiens, UniProt P10635); assay: Inhibition of CYP2D6; assay type: ADME
Cytochrome P450 2D6, sequence (P10635 whole entry): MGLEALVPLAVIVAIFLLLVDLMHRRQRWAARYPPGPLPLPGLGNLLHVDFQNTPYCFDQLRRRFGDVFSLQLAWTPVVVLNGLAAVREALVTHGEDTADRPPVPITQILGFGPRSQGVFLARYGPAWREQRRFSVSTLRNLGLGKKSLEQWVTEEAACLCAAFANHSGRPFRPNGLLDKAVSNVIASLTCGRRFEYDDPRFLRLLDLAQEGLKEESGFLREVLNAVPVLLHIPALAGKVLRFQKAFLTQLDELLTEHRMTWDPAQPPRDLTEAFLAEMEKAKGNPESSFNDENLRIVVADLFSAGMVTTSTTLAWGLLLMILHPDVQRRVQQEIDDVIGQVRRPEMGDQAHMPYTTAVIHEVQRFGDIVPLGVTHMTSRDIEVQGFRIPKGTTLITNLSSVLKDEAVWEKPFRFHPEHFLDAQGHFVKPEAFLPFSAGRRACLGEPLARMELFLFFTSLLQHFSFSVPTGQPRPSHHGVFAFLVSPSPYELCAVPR

T1 sequence (P41597 whole entry): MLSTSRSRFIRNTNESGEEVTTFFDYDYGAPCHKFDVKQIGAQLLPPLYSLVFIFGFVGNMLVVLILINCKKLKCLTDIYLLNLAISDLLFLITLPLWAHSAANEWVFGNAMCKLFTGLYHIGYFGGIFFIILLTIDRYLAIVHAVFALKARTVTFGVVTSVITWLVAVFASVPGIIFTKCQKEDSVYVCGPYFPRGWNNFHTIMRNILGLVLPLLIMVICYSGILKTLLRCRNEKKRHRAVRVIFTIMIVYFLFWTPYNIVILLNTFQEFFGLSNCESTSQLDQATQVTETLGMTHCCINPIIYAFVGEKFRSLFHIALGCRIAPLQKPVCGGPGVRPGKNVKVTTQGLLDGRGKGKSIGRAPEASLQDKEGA
T2 sequence (Q12809 whole entry): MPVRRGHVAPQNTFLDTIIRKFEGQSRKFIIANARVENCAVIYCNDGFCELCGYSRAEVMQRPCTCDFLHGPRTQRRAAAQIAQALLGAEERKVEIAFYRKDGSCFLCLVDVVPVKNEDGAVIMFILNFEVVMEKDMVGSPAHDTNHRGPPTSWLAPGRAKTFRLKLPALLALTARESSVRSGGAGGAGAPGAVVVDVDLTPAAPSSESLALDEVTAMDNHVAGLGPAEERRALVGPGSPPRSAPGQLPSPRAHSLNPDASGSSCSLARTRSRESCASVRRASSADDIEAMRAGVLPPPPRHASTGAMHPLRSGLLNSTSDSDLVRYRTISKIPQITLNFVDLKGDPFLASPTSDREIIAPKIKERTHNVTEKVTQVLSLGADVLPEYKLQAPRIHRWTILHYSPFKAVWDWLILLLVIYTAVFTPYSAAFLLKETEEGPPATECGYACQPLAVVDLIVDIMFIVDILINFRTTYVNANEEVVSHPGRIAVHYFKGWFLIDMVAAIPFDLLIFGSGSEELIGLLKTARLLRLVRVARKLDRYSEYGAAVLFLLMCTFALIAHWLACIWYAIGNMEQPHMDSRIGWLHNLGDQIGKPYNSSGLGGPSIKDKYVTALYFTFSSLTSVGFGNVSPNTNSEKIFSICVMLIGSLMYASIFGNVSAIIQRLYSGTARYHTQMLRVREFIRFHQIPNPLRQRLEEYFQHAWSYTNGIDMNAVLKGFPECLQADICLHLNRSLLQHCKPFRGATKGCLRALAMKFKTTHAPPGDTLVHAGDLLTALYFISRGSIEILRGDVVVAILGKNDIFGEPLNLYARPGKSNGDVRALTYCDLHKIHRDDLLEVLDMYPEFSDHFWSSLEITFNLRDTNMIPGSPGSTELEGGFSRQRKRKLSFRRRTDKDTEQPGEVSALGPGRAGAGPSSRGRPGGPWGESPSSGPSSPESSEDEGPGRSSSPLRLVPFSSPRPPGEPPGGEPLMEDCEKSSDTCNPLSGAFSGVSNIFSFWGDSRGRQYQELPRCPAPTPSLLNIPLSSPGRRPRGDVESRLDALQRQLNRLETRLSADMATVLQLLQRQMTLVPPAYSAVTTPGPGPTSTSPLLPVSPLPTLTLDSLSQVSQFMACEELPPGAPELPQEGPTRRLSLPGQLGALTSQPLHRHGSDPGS
C-C chemokine receptor type 2 (Mus musculus, UniProt P51683), sequence (P51683 whole entry): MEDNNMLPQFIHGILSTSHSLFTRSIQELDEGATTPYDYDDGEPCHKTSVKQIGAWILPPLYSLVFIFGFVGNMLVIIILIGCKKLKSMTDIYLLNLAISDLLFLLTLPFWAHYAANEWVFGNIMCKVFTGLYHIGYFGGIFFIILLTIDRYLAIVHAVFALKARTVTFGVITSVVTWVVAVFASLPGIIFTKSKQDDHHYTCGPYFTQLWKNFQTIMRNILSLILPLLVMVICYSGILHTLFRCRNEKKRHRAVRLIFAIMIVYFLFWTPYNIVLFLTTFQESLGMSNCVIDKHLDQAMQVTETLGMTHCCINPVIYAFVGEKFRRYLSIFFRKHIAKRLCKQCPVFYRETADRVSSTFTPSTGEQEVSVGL
C-X-C chemokine receptor type 4 (Homo sapiens), sequence (P61073 whole entry): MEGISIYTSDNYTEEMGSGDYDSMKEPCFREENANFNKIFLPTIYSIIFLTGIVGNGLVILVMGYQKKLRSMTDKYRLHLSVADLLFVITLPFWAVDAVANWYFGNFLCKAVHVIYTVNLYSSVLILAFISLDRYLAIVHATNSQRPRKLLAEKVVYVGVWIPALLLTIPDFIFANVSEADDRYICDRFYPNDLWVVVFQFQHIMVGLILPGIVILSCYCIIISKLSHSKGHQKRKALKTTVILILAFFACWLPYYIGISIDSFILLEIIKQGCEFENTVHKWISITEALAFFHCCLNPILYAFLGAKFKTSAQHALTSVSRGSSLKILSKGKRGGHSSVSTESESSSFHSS
C-C chemokine receptor type 8 (Homo sapiens), sequence (P51685 whole entry): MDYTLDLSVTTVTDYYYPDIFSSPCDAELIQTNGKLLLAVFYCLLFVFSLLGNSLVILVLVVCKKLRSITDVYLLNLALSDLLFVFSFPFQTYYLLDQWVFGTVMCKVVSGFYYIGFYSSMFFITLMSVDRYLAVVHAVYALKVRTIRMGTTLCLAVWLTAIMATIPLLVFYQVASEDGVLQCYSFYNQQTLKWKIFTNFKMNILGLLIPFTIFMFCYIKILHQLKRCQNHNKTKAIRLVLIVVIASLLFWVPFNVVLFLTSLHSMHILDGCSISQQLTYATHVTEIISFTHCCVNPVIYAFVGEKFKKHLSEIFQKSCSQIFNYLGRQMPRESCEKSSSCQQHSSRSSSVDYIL
Cytochrome P450 3A4, sequence (P08684 whole entry): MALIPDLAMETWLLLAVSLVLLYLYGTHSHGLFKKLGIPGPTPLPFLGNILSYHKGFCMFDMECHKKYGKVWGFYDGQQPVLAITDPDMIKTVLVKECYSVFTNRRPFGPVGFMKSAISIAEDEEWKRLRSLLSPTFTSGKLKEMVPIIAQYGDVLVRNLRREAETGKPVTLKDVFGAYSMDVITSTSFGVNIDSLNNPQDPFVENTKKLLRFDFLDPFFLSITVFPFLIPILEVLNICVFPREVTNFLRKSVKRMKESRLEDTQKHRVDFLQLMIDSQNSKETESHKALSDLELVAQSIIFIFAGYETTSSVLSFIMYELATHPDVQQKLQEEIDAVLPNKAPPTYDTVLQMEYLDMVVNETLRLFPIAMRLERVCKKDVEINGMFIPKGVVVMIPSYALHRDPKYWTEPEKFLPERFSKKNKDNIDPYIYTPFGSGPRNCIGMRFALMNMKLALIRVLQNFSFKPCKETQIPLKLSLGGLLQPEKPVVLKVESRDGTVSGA
C-C chemokine receptor type 5, sequence (P51681 whole entry): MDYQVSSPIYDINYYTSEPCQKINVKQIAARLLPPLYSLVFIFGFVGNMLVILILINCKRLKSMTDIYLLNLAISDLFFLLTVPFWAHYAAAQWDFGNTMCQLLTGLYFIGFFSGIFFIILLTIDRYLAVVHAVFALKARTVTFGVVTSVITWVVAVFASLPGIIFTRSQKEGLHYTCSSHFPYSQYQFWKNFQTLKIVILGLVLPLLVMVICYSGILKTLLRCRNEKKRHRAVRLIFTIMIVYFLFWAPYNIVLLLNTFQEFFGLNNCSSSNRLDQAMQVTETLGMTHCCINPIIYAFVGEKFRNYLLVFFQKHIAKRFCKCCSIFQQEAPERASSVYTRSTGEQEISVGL

SMILES: O=C(Nc1ccc(Cl)c(C(F)(F)F)c1)N1CCN(C[C@@H]2CCCN(C3CC3)C2)CC1
IC50 [1]: 35 nM
IC50 [2]: 421 nM
IC50 [3]: 6300 nM

SMILES: CC(C)N1CCN[C@@H](C(=O)N2CCN(C(=O)Nc3ccc(Cl)c(Cl)c3)CC2)C1
IC50 [1]: 3.5 nM
IC50 [2]: 5.8 nM
hepatocyte CLint [4]: < 2 µL/min/1e6 cells
hepatocyte CLint [5]: < 2 µL/min/1e6 cells
hepatocyte CLint [6]: < 2 µL/min/1e6 cells
clearance [7]: 30 mL/min/kg
clearance [8]: 17 mL/min/kg
Vd [9]: 4 L/kg
Vd [10]: 8.5 L/kg
half-life [11]: 3 h
half-life [12]: 9.1 h
bioavailability [13]: 11%
bioavailability [14]: 83%
logD [15]: 2.21
logD [16]: 2.7
pKa [17]: 7.8
solubility [18]: > 3100 µM
IC50 [19]: 60000 nM
Kb [20]: 3.47 nM
IC50 [21]: 1200 nM
IC50 [22]: 200 nM
IC50 [23]: 1600 nM
inhibition [24]: inactive
inhibition [25]: inactive
inhibition [26]: inactive
inhibition [27]: inactive
IC50 [28]: 22 nM
IC50 [3]: 17000 nM

SMILES: CS(=O)(=O)c1cccc(NC(=O)N2CCN(C[C@@H]3CCCN(C4CC4)C3)CC2)c1
IC50 [1]: > 10000 nM

SMILES: N#Cc1cccc(NC(=O)N2CCN(C[C@@H]3CCCN(C4CC4)C3)CC2)c1
IC50 [1]: 1050 nM
IC50 [2]: 5870 nM

SMILES: O=C(Nc1ccc(Br)cc1)N1CCN(C[C@@H]2CCCN(C3CC3)C2)CC1
IC50 [1]: 58 nM
IC50 [2]: 162 nM
IC50 [3]: 7100 nM

SMILES: CC(C)N1CCN[C@@H](CN2CCN(C(=O)Nc3ccc(Cl)c(Cl)c3)CC2)C1
IC50 [1]: 26 nM
IC50 [2]: 32 nM

SMILES: CCN1CCOC(C(=O)N2CCN(C(=O)Nc3ccc(Cl)c(Cl)c3)CC2)C1 (racemic)
IC50 [1]: 2570 nM
IC50 [2]: > 1000 nM
IC50 [3]: 5000 nM

SMILES: COc1ccc(NC(=O)N2CCN(C[C@@H]3CCCN(C4CC4)C3)CC2)cc1
IC50 [1]: 1460 nM

Continued, in another order:

IC50 [1]: 99 nM
IC50 [2]: 244 nM
SMILES: O=C(Nc1ccc(Cl)c(Cl)c1)N1CCN(C[C@@H]2CCCN(Cc3ccccc3)C2)CC1

IC50 [1]: 27 nM
IC50 [2]: 184 nM
SMILES: Cc1ccc(NC(=O)N2CCN(C[C@@H]3CCCN(C4CC4)C3)CC2)cc1Cl
IC50 [3]: 7100 nM

IC50 [1]: 50 nM
IC50 [2]: 75 nM
SMILES: O=C(Nc1ccc(F)c(Cl)c1)N1CCN(C[C@@H]2CCCN(C3CC3)C2)CC1
IC50 [3]: 14000 nM

IC50 [1]: 52 nM
IC50 [2]: 161 nM
SMILES: O=C(Nc1ccc(Cl)c(Cl)c1)N1CCN(C[C@@H]2CCCN(CC3CC3)C2)CC1

IC50 [1]: 10 nM
IC50 [2]: 64 nM
solubility [29]: 290 µM (≈ 119 µg/mL)
fraction unbound [30]: 0.05
fraction unbound [31]: 0.05
microsomal CLint [32]: 5 µL/min/mg
clearance [33]: 24 mL/min/kg
half-life [34]: 5 h
Vd [35]: 8 L/kg
bioavailability [36]: 11%
IC50 [37]: 1600 nM
IC50 [38]: 3100 nM
hepatocyte CLint [4]: 11 µL/min/1e6 cells
SMILES: O=C(Nc1ccc(Cl)c(Cl)c1)N1CCN(C[C@@H]2CCCN(C3CC3)C2)CC1

IC50 [1]: 127 nM
IC50 [2]: 220 nM
SMILES: O=C(Nc1ccc(Cl)cc1)N1CCN(C[C@@H]2CCCN(C3CC3)C2)CC1
IC50 [3]: 14000 nM

IC50 [1]: 64 nM
IC50 [2]: 277 nM
SMILES: CCN1CCO[C@@H](CN2CCN(C(=O)Nc3ccc(Cl)c(Cl)c3)CC2)C1
IC50 [3]: 7900 nM

IC50 [1]: 1180 nM
SMILES: CCN1CCC[C@H](CN2CCN(C(=O)Nc3ccc(Cl)c(Cl)c3)CC2)C1

IC50 [1]: 856 nM
IC50 [2]: 588 nM
SMILES: CCN1CCC[C@@H](C(=O)N2CCN(C(=O)Nc3ccc(Cl)c(Cl)c3)CC2)C1

IC50 [1]: > 10000 nM
SMILES: O=C(Nc1ccccc1Cl)N1CCN(C[C@@H]2CCCN(C3CC3)C2)CC1

IC50 [1]: 171 nM
IC50 [2]: 202 nM
SMILES: O=C(Nc1cccc(Cl)c1)N1CCN(C[C@@H]2CCCN(C3CC3)C2)CC1
